Measurements from patent publication US20120196828A1, “SENSITIZATION OF CANCER CELLS TO TREATMENT” (priority 2011, published 2012).
Values joined by “and” are separate entries in the source; they are usually repeats but may differ in a detail not shown here. Equal values may be shown once.

Experiments:
[1] = test system: BxPC-3 Human Pancreas Tumor Xenograft; experiment: BxPC-3 human pancreas tumor xenograft model: tumor weight and tumor growth inhibition; type: in vivo, mouse; settings: for Day 26 Tumor Weight: mean ± Std Err, treatment administered until Day 26
Experimental: Compounds tested in the experiment were as follows. […] A concentration of 4.8 mg/ml was formulated to deliver a 24 mg/kg dose at a 5 ml/kg dose volume when administered subcutaneously. […] Nab-paclitaxel was manufactured by Abraxis BioScience LLC (Bridgewater, N.J.) and diluted in a 0.9% NaCl solution to a concentration of 1.5 mg/ml to deliver 15 mg/kg, in a 10 ml/kg dose volume. All standard agent preparations were made fresh prior to their administration.
BxPC-3 cells were obtained and prepared as follows. The BxPC-3 pancreas tumor cell line was received from American Type Culture Collection (ATCC, Manassas, Va.). Cultures were maintained in RPMI 1640 medium (Hyclone, Logan, Utah) supplemented with 5% fetal bovine serum. The cells were housed in a 5% CO2 atmosphere. The cultures were expanded in tissue culture flasks at a 1:3 split ratio until a sufficient amount of cells were harvested.
(§1) All experiments were conducted on female athymic nude mice (Hsd:Athymic Nude-Foxn1nu) supplied by Harlan (Indianapolis, Ind.). Mice were received at four weeks of age, 12-15 grams in weight, and were acclimated for seven days prior to handling. The mice were housed in microisolator cages (Lab Products, Seaford, Del.) and maintained under specific pathogen-free conditions. All procedures were carried out under appropriate institutional guidelines for animal care.
BxPC-3 Human Pancreas Tumor Xenograft Model: Female athymic nude mice per treatment condition were inoculated subcutaneously in the right flank with 0.1 ml of a 50% RPMI 1640/50% Matrigel™ (BD Biosciences, Bedford, Mass.) mixture containing a suspension of BxPC-3 tumor cells (approximately 5×10^6 cells/mouse).
(§2) Seven days following inoculation, tumors were measured using calipers and tumor weight was calculated using the animal study management software, Study Director V.1.7.54 k (Study Log). See Britten C D, et al. Enhanced antitumor activity of 6-hydroxymethylacylfulvene in combination with irinotecan and 5-fluorouracil in the HT29 human colon tumor xenograft model. Cancer Res 59:1049-1053, 1999. […] Body weights were recorded when the mice were randomized and were taken twice weekly thereafter in conjunction with tumor measurements, on each of Days 1, 4, 8, 11, 15, 18, 22, 26, 30, 33, and 36.
(§3) The study was terminated when the vehicle control reached an endpoint of 1500 mg, on Day 36.
Mean tumor growth inhibition (TGI) was calculated utilizing Formula A below (deaths were not included in the TGI calculations).
All statistical analyses in the xenograft study were performed with GraphPad Prism® v4 software.

[2] = Body weight, deaths and clinical observations in the BxPC-3 xenograft study; settings: for Starting Weight: baseline body weight, female athymic nude mice, BxPC-3 xenograft study
Experimental: as §1, §2, §3

[3] = target: anti-thrombin III (Homo sapiens, UniProt P01008); settings: cited from earlier work
[4] = ANOVA with Tukey's Multiple Comparison Test
[5] = Day 26, group mean, dosing per Table 1
[6] = total deaths on or before Day 26, N = 10 per group

anti-thrombin III, sequence (P01008 33-464, species assumed): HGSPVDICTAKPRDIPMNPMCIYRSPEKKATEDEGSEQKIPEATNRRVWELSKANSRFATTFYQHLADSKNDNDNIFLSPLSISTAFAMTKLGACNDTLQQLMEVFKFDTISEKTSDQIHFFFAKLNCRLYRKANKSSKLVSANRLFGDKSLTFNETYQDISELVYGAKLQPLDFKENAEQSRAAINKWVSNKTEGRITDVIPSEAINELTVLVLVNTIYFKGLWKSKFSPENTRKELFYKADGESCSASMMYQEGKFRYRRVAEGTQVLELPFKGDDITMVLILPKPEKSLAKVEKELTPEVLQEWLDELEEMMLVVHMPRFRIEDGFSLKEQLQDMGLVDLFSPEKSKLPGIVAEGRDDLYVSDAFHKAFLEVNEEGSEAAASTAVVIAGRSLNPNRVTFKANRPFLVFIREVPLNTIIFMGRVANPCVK

## Nc1ccn([C@@H]2O[C@H](CO)[C@@H](O)C2(F)F)c(=O)n1 [Gemcitabine]
[1]; [4]
  Difference in tumor weight on Day 26 compared to vehicle control: No significant difference
  Difference in tumor weight on Day 36 compared to vehicle control: No significant difference
[1]; Day 1 (randomization), group mean, dosing per Table 1
  Mean tumor weight, Day 1: 124.3 mg
[1]; Day 1 (randomization), group median, dosing per Table 1
  Median tumor weight, Day 1: 121.1 mg
[1]; Day 1 (randomization), individual mouse, dosing per Table 1 (ODSH 24, oxaliplatin 10, gemcitabine 80, nab-paclitaxel 15 mg/kg)
  Tumor weight, individual mouse, Day 1: 132 mg and 139 mg and 126 mg and 104 mg and 107 mg and 111 mg and 116 mg and 166 mg and 146 mg and 96 mg
[1]; Day 4, group mean, dosing per Table 1
  Mean tumor weight, Day 4: 152.5 mg
[1]; Day 4, group median, dosing per Table 1
  Median tumor weight, Day 4: 140.2 mg
[1]; Day 4, individual mouse, dosing per Table 1
  Tumor weight, individual mouse, Day 4: 189 mg and 214 mg and 126 mg and 122 mg and 131 mg and 133 mg and 146 mg and 176 mg and 155 mg and 135 mg
[1]; Day 8, group mean, dosing per Table 1
  Mean tumor weight, Day 8: 162.2 mg
[1]; Day 8, group median, dosing per Table 1
  Median tumor weight, Day 8: 147.4 mg
[1]; Day 8, individual mouse, dosing per Table 1
  Tumor weight, individual mouse, Day 8: 193 mg and 282 mg and 129 mg and 130 mg and 125 mg and 161 mg and 175 mg and 180 mg and 134 mg
[1]; Day 11, group mean, dosing per Table 1
  Mean tumor weight, Day 11: 198.2 mg
[1]; Day 11, group median, dosing per Table 1
  Median tumor weight, Day 11: 191.0 mg
[1]; Day 11, individual mouse, dosing per Table 1
  Tumor weight, individual mouse, Day 11: 235 mg and 328 mg and 146 mg and 145 mg and 119 mg and 150 mg and 202 mg and 242 mg and 234 mg and 180 mg
[1]; Day 15, group mean, dosing per Table 1
  Mean tumor weight, Day 15: 263.8 mg
[1]; Day 15, group median, dosing per Table 1
  Median tumor weight, Day 15: 259.2 mg
[1]; Day 15, individual mouse, dosing per Table 1
  Tumor weight, individual mouse, Day 15: 319 mg and 375 mg and 211 mg and 218 mg and 181 mg and 228 mg and 245 mg and 288 mg and 300 mg and 274 mg
[1]; Day 18, group mean, dosing per Table 1
  Mean tumor weight, Day 18: 332.1 mg
[1]; Day 18, group median, dosing per Table 1
  Median tumor weight, Day 18: 340.1 mg
[1]; Day 18, individual mouse, dosing per Table 1
  Tumor weight, individual mouse, Day 18: 413 mg and 379 mg and 258 mg and 267 mg and 224 mg and 269 mg and 441 mg and 376 mg and 389 mg and 304 mg
[1]; Day 22, group mean, dosing per Table 1
  Mean tumor weight, Day 22: 459.4 mg
[1]; Day 22, group median, dosing per Table 1
  Median tumor weight, Day 22: 451.9 mg
[1]; Day 22, individual mouse, dosing per Table 1
  Tumor weight, individual mouse, Day 22: 621 mg and 514 mg and 372 mg and 400 mg and 350 mg and 332 mg and 592 mg and 509 mg and 500 mg and 404 mg
[1]; [5]
  Mean tumor weight, Day 26: 594.7 mg
[1]; Day 26, group median, dosing per Table 1
  Median tumor weight, Day 26: 605.8 mg
[1]; Day 26, individual mouse, dosing per Table 1
  Tumor weight, individual mouse, Day 26: 797 mg and 739 mg and 468 mg and 534 mg and 431 mg and 389 mg and 730 mg and 628 mg and 647 mg and 583 mg
[1]; Day 26
  Day 26 Tumor Weight: 594.7 ± 43.8 mg
[1]; Day 30, group mean of surviving mice, dosing per Table 1
  Mean tumor weight, Day 30: 874.3 mg
[1]; Day 30, group median, dosing per Table 1
  Median tumor weight, Day 30: 858.0 mg
[1]; Day 30, individual mouse, dosing per Table 1
  Tumor weight, individual mouse, Day 30: 1,121 mg and 1,008 mg and 674 mg and 860 mg and 667 mg and 589 mg and 1,150 mg and 856 mg and 992 mg and 826 mg
[1]; Day 33, group mean of surviving mice, dosing per Table 1
  Mean tumor weight, Day 33: 1,044.2 mg
[1]; Day 33, group median, dosing per Table 1
  Median tumor weight, Day 33: 1,033.3 mg
[1]; Day 33, individual mouse, dosing per Table 1
  Tumor weight, individual mouse, Day 33: 1,367 mg and 1,132 mg and 878 mg and 1,036 mg and 936 mg and 624 mg and 1,275 mg and 1,030 mg and 1,158 mg and 1,008 mg
[1]; Day 36, treatment administered until Day 35
  Day 36 Tumor Weight: 1288.8 ± 74.3 mg
[1]; Day 36, group median, dosing per Table 1
  Median tumor weight, Day 36: 1,306.7 mg
[1]; Day 36, individual mouse, dosing per Table 1
  Tumor weight, individual mouse, Day 36: 1,573 mg and 1,368 mg and 963 mg and 1,347 mg and 1,106 mg and 923 mg and 1,596 mg and 1,482 mg and 1,267 mg and 1,265 mg
[1]; Day 36 vs Day 1, relative to vehicle control (Group 1), deaths not included
  Day 36 % TGI: 16.8%
[2]
  Day 1 Average Weight: 22.48 g
  Day 11 Average Weight: 20.52 g
  Day 15 Average Weight: 21.70 g
  Starting Weight: 22.48 g
[2]; Day 4
  Day 4 Average Weight: 21.76 g
[2]; Day 8
  Day 8 Average Weight: 20.91 g
[2]; Day 18
  Day 18 Average Weight: 23.15 g
[2]; Day 22, vs starting weight
  Day 22 % Weight Loss or Gain: 8.59%
[2]; Table 13 Day 26
  Day 26 Average Weight: 24.21 g
[2]; Table 13 Day 26, vs starting weight
  Day 26 % Weight Loss or Gain: 7.70%
[2]; body weight of mice
  Maximum weight loss: 8.7%
[2]; mouse, in vivo
  Day 4 % Weight Loss or Gain: −3.20%
  Day 8 % Weight Loss or Gain: −6.98%
  Day 11 % Weight Loss or Gain: −8.72%
  Day 15 % Weight Loss or Gain: −3.47%
  Day 18 % Weight Loss or Gain: 2.98%
  Day 22 % Weight Loss or Gain: 7.74%
  Day 22 Average Weight: 24.22 g
  Day 26 % Weight Loss or Gain: 7.96%
  Day 26 Average Weight: 24.27 g
  Day 30 % Weight Loss or Gain: 7.61%
  Day by which the mice recovered their weight: ≤ 18 days
  Day on which maximum weight loss was reached: 11 days
[2]; [6]
  Deaths: 0
[2]; total deaths on or before Day 36, n = 10 per group
  Deaths: 0

## O=C1[O][Pt]2([NH][C@@H]3CCCC[C@H]3[NH]2)[O]C1=O [Oxaliplatin]
[1]; [4]
  Difference in tumor weight on Day 26 compared to vehicle control: No significant difference
[1]; [5]
  Mean tumor weight, Day 26: 635.0 mg
[1]; Day 26
  Day 26 Tumor Weight: 635.0 ± 52.3 mg
[1]; Day 26 vs Day 1, relative to vehicle control (Group 1), deaths not included
  Day 26 % TGI: 8.0% and 8.0 (10/10) %
[2]
  Day 1 Average Weight: 20.82 g
  Day 11 Average Weight: 20.12 g
  Day 15 Average Weight: 20.81 g
  Starting Weight: 20.82 g
[2]; Day 4, vs starting weight
  Day 4 % Weight Loss or Gain: −2.02%
[2]; Day 8, vs starting weight
  Day 8 % Weight Loss or Gain: −0.82%
[2]; Day 15, vs starting weight
  Day 15 % Weight Loss or Gain: −0.05%
[2]; Day 18, vs starting weight
  Day 18 % Weight Loss or Gain: −1.78%
[2]; mouse, in vivo
  Day bruising of the tails was first observed: 11 days
[2]; of ten mice
  Mice demonstrating bruising on the tails or abdomen (site of injection): One mouse
[2]; [6]
  Deaths: 0

## heparin
[3]
  Kd: 1560 nM
  Kd for anti-thrombin III: 22 µg/mL
